Results reported in ChEMBL document CHEMBL4000244, “Probing A-form DNA: A fluorescent aminosugar probe and dual recognition by anthraquinone-neomycin conjugates” (Bioorg Med Chem, 2017).

Key:
[1] = Binding affinity to 5'-CCCGGCCC-3' DNA hairpin assessed as change in fluorescence intensity at 1 uM after 45 mins by fluorescence quenching analysis relative to control
[2] = Binding affinity to 5'-GCGGGCCG-3' DNA hairpin assessed as change in fluorescence intensity at 1 uM after 45 mins by fluorescence quenching analysis relative to control
[3] = Binding affinity to 5'-GCGCCGGC-3' DNA hairpin assessed as change in fluorescence intensity at 1 uM after 45 mins by fluorescence quenching analysis relative to control
[4] = Binding affinity to 5'-CGGGGCCG-3' DNA hairpin assessed as change in fluorescence intensity at 1 uM after 45 mins by fluorescence quenching analysis relative to control
[5] = Binding affinity to 5'-GCCGCCCC-3' DNA hairpin assessed as change in fluorescence intensity at 1 uM after 45 mins by fluorescence quenching analysis relative to control
[6] = Binding affinity to 5'-GCCCGCCC-3' DNA hairpin assessed as change in fluorescence intensity at 1 uM after 45 mins by fluorescence quenching analysis relative to control
[7] = Binding affinity to 5'-CCCGGGCG-3' DNA hairpin assessed as change in fluorescence intensity at 1 uM after 45 mins by fluorescence quenching analysis relative to control
[8] = Binding affinity to 5'-GCGCCGCC-3' DNA hairpin assessed as change in fluorescence intensity at 1 uM after 45 mins by fluorescence quenching analysis relative to control
[9] = Binding affinity to 5'-GCGGCGCC-3' DNA hairpin assessed as change in fluorescence intensity at 1 uM after 45 mins by fluorescence quenching analysis relative to control
[10] = Binding affinity to 5'-GGGCGCGG-3' DNA hairpin assessed as change in fluorescence intensity at 1 uM after 45 mins by fluorescence quenching analysis relative to control
[11] = Binding affinity to 5'-CGGGCGCC-3' DNA hairpin assessed as change in fluorescence intensity at 1 uM after 45 mins by fluorescence quenching analysis relative to control
[12] = Binding affinity to 5'-GGCCGCCG-3' DNA hairpin assessed as change in fluorescence intensity at 1 uM after 45 mins by fluorescence quenching analysis relative to control
[13] = Binding affinity to 5'-CCGCCCCG-3' DNA hairpin assessed as change in fluorescence intensity at 1 uM after 45 mins by fluorescence quenching analysis relative to control
[14] = Binding affinity to 5'-CCCCGGGC-3' DNA hairpin assessed as change in fluorescence intensity at 1 uM after 45 mins by fluorescence quenching analysis relative to control
[15] = Binding affinity to 5'-GGGCCCGG-3' DNA hairpin assessed as change in fluorescence intensity at 1 uM after 45 mins by fluorescence quenching analysis relative to control
[16] = Binding affinity to 5'-CCGCGGGC-3' DNA hairpin assessed as change in fluorescence intensity at 1 uM after 45 mins by fluorescence quenching analysis relative to control
[17] = Binding affinity to 5'-GGCGCCGG-3' DNA hairpin assessed as change in fluorescence intensity at 1 uM after 45 mins by fluorescence quenching analysis relative to control
[18] = Binding affinity to 5'-CCCCCCCG-3' DNA hairpin assessed as change in fluorescence intensity at 1 uM after 45 mins by fluorescence quenching analysis relative to control
[19] = Binding affinity to 5'-CGCGCGCC-3' DNA hairpin assessed as change in fluorescence intensity at 1 uM after 45 mins by fluorescence quenching analysis relative to control
[20] = Binding affinity to 5'-GGGGGGCG-3' DNA hairpin assessed as change in fluorescence intensity at 1 uM after 45 mins by fluorescence quenching analysis relative to control
[21] = Binding affinity to 5'-GCGGGCGC-3' DNA hairpin assessed as change in fluorescence intensity at 1 uM after 45 mins by fluorescence quenching analysis relative to control
[22] = Binding affinity to 5'-GCGGCCCG-3' DNA hairpin assessed as change in fluorescence intensity at 1 uM after 45 mins by fluorescence quenching analysis relative to control
[23] = Binding affinity to 5'-CGCGCCCG-3' DNA hairpin assessed as change in fluorescence intensity at 1 uM after 45 mins by fluorescence quenching analysis relative to control
[24] = Binding affinity to 5'-CCCCGGCG-3' DNA hairpin assessed as change in fluorescence intensity at 1 uM after 45 mins by fluorescence quenching analysis relative to control
[25] = Binding affinity to 5'-CCGGCCGC-3' DNA hairpin assessed as change in fluorescence intensity at 1 uM after 45 mins by fluorescence quenching analysis relative to control
[26] = Binding affinity to 5'-GGCGGCGC-3' DNA hairpin assessed as change in fluorescence intensity at 1 uM after 45 mins by fluorescence quenching analysis relative to control
[27] = Binding affinity to 5'-GGGGGGGG-3' DNA hairpin assessed as change in fluorescence intensity at 1 uM after 45 mins by fluorescence quenching analysis relative to control
[28] = Binding affinity to 5'-CGGCCCCC-3' DNA hairpin assessed as change in fluorescence intensity at 1 uM after 45 mins by fluorescence quenching analysis relative to control
[29] = Binding affinity to 5'-GGGGCGGC-3' DNA hairpin assessed as change in fluorescence intensity at 1 uM after 45 mins by fluorescence quenching analysis relative to control
[30] = Binding affinity to 5'-CGCGGGGC-3' DNA hairpin assessed as change in fluorescence intensity at 1 uM after 45 mins by fluorescence quenching analysis relative to control
[31] = Binding affinity to 5'-GGGGGGGC-3' DNA hairpin assessed as change in fluorescence intensity at 1 uM after 45 mins by fluorescence quenching analysis relative to control
[32] = Binding affinity to 5'-CGGGGGCG-3' DNA hairpin assessed as change in fluorescence intensity at 1 uM after 45 mins by fluorescence quenching analysis relative to control
[33] = Binding affinity to 5'-CCGCGCCC-3' DNA hairpin assessed as change in fluorescence intensity at 1 uM after 45 mins by fluorescence quenching analysis relative to control
[34] = Binding affinity to 5'-CGCGGGCC-3' DNA hairpin assessed as change in fluorescence intensity at 1 uM after 45 mins by fluorescence quenching analysis relative to control
[35] = Binding affinity to 5'-GCGGCGGC-3' DNA hairpin assessed as change in fluorescence intensity at 1 uM after 45 mins by fluorescence quenching analysis relative to control
[36] = Binding affinity to 5'-CGCGCCGG-3' DNA hairpin assessed as change in fluorescence intensity at 1 uM after 45 mins by fluorescence quenching analysis relative to control

Activity [1]: 40.8%
Activity [2]: 40.9%
Activity [3]: 55.1%
Activity [4]: 41.1%
Activity [5]: 48.5%
Activity [6]: 47.8%
Activity [7]: 39%
Activity [8]: 50.4%
Activity [9]: 49.9%
Activity [10]: 51.5%
Activity [11]: 52.5%
Activity [12]: 40.7%
Activity [13]: 49.3%
Activity [14]: 43%
Activity [15]: 25.4%
Activity [16]: 45.7%
Activity [17]: 53.2%
Activity [18]: 19.9%
Activity [19]: 52.2%
Activity [20]: 46.3%
Activity [21]: 53.7%
Activity [22]: 52.5%
Activity [23]: 48.8%
Activity [24]: 50%
Activity [25]: 57.7%
Activity [26]: 50.6%
Activity [27]: 27.2%
Activity [28]: 29.6%
Activity [29]: 44.6%
Activity [30]: 48.3%
Activity [31]: 29.8%
Activity [32]: 41.1%
Activity [33]: 52.4%
Activity [34]: 44.3%
Activity [35]: 47.7%
Activity [36]: 43.8%
Compound: NCC1O[C@H](O[C@H]2[C@@H](O)[C@H](O[C@@H]3[C@@H](O)[C@H](N)C[C@H](N)[C@H]3O[C@H]3O[C@H](CN)[C@@H](O)[C@H](O)[C@H]3N)O[C@@H]2CSCCNC(=O)CCSCC(=O)Nc2ccc(-c3c4ccc(=O)cc-4oc4cc(O)ccc34)c(C(=O)O)c2)[C@H](N)[C@@H](O)[C@@H]1O (stereo partly specified)
